According to ChEMBL document CHEMBL3046570, “Synthesis, structure characterization, and biological evaluation of some new 1,2,3-benzotriazole derivatives” (2010):
Calls of active or inactive are those of the source. No cut-off for these calls is given here.

Columns and labels:
Mycosphaerella arachidis = assay: Fungicidal activity against Mycosphaerella arachidis assessed as inhibition of mycelium formation at 50 ug/ml after 72 hr (reference value: 0.005%); format: functional
4T1 [1] = assay: Cytotoxicity against Mus musculus (mouse) 4T1 cells assessed as cell survival at 0.2 mM after 72 hr by MTT assay relative to control; format: functional; conditions: 4T1, 72 h, read-out: Survival
4T1 [2] = assay: Cytotoxicity against Mus musculus (mouse) 4T1 cells assessed as cell survival at 0.2 mM after 48 hr by MTT assay relative to control; format: functional; conditions: 4T1, 48 h, read-out: Survival
4T1 [3] = assay: Cytotoxicity against Mus musculus (mouse) 4T1 cells assessed as cell survival at 0.2 mM after 24 hr by MTT assay relative to control; format: functional; conditions: 4T1, 24 h, read-out: Survival
4T1 [4] = assay: Cytotoxicity against Mus musculus (mouse) 4T1 cells assessed as decrease in cell viability after 24 to 72 hr by MTT assay; format: functional, cell-based
4T1 [5] = assay: Cytotoxicity against Mus musculus (mouse) 4T1 cells assessed as decrease in cell viability at 0.2 mM by MTT assay; format: functional, cell-based; conditions: TDE = time-dependent effect
Homo sapiens = organism: Homo sapiens; assay: Cytotoxicity against Homo sapiens (human) HEP7402 cells assessed as decrease in cell viability at 0.05 to 0.2 mM after 24 to 72 hr by MTT assay; format: functional, cell-based

Structure (SMILES): O=C(OC(Cn1nnc2ccccc21)C(=O)c1ccccc1)c1ccncc1 (stereo unspecified)
- inhibition at 50 µg/mL (Mycosphaerella arachidis): 13%

Structure (SMILES): O=C(OC(Cn1nnc2ccccc21)C(=O)c1ccc(Cl)cc1)c1cccnc1 (stereo unspecified)
- viability at 200 µM (4T1 [1]): 40.3%
- viability at 200 µM (4T1 [2]): 45%
- viability at 200 µM (4T1 [3]): 52.2%
- Activity (4T1 [4]): Dose-dependent effect
- inhibition at 50 µg/mL (Mycosphaerella arachidis): 18.8%
- Activity (4T1 [5]): tde

Structure (SMILES): O=C(OC(Cn1nnc2ccccc21)C(=O)c1ccccc1)c1cccnc1 (stereo unspecified)
- inhibition at 50 µg/mL (Mycosphaerella arachidis): 15%

Structure (SMILES): Cc1ccc(C(=O)C(Cn2nnc3ccccc32)OC(=O)c2cccnc2)cc1 (stereo unspecified)
- Activity (Homo sapiens): Active
- inhibition at 50 µg/mL (Mycosphaerella arachidis): 0%

Structure (SMILES): O=C(OC(Cn1nnc2ccccc21)C(=O)c1ccc(Cl)cc1Cl)c1cccnc1 (stereo unspecified)
- inhibition at 50 µg/mL (Mycosphaerella arachidis): 31.3%
